# Reference: patent publication US20230285524A1, “USE OF ELAFIN FOR DISORDERS ASSOCIATED WITH ELASTASE INDEPENDENT INCREASE IN TROPONIN” (tiakis Biotech AG, priority 2014, published 2023)
# Legend:
# 20 S proteasome = details: Butler et al., 2006; cited from earlier work
# [1] = test system: troponin I release from cardiomyocytes; test: Plasma cTroponin I after coronary artery bypass grafting surgery, randomized double-blinded trial, Elafin versus placebo; type: in vivo, human; details: 200 mg i.v. infusion at start of surgery
# Protocol: Patients undergoing coronary artery bypass grafting surgery were treated with either intravenous infusion of a 200 mg dose of Elafin in 250 mL of normal saline (Elafin group, n=44) or 250 mL of normal saline (placebo group, n=42) in a randomized, double-blinded clinical trial. The intravenous infusion was started at first skin incision and completed at least 20 min before cardiopulmonary bypass commenced.
# Blood samples were taken at baseline (time 0, skin incision) and at 2, 6, 24 and 48 h post-operatively. Plasma cTroponin I concentrations were quantified with the Abbott Architect highly-sensitive assay (Abbott Laboratories, ILL) according to the manufacturer's instructions. This assay has a sensitivity of 0.01 ng/mL or less, with a 10% coefficient of variation of 0.032 ng/mL and a 99th percentile (male and female) of 0.012 ng/mL. cTroponin I is a regulatory protein of cardiomyocyte contraction and its presence in blood plasma is a specific indication of cardiomyocyte injury.
# IL-6 = test: Serum interleukin 6 after on-pump coronary artery bypass grafting surgery, Elafin versus placebo; type: in vivo, human; details: 200 mg i.v. infusion
# Protocol: (§1) 44 Patients undergoing on-pump coronary artery bypass grafting surgery received a 200 mg dose of Elafin in 250 mL of normal saline by intravenous infusion that was started at first skin incision and completed at least 20 min before cardiopulmonary bypass commenced. A second group of 42 patients undergoing the same surgical procedure received 250 ml normal saline (placebo) per infusion instead.
# Blood was drawn from patients and from the blood samples serum was prepared. Serum levels of interleukin 6 were determined by the use of a Human Interleukin 6 Immunoassay (R&D Systems Europe, Abingdon, UK) according to the instructions of the manufacturer. This assay employs the quantitative sandwich enzyme immunoassay technique. A monoclonal antibody specific for IL-6 has been pre-coated onto a microplate. Interleukin 6 standards and samples were pipetted into wells and any IL-6 present was bound by an immobilized antibody. After washing away any unbound substances, an enzyme-linked polyclonal antibody specific for IL-6 was added to the wells. Following a wash to remove any unbound antibody-enzyme reagent, a substrate solution was added to the wells. After an incubation period, an amplifier solution was added to the wells and color developed in proportion to the amount of IL-6 bound in the initial step. The color development was stopped and the intensity of the color is measured.
# U937 = U937 cells, Butler et al., 2006, cited from earlier work
# [2] = rats; cited from earlier work
# C-reactive protein (CRP) = test: Serum C-reactive protein after on-pump coronary artery bypass grafting surgery, Elafin versus placebo; type: in vivo, human; details: 200 mg i.v. infusion, time point 6 h
# Protocol: as §1
# Blood was drawn from patients and from the blood samples serum was prepared. Serum levels of the inflammatory marker C-reactive protein (CRP) at time point 6 h were measured (FIG. 4).
substance,measurement,setting,value
"Elafin: recombinant human protein of 57 amino acids (SEQ ID NO:1), reversible tight binding inhibitor of elastase and proteinase 3 (AQEPVKGPVSTKPGSCPIILIRCAMLNPPNRCLKDTDCPGIKKCCEGSCGMACFVPQ; listed as Homo sapiens)",inhibition of peptidase activities associated with the 20 S proteasome,20 S proteasome,no inhibition
same,reduction of troponin I release 6 hours after commencement of surgery,[1]; 6 h,significant reduction
same,"overall reduction of the Troponin I release (area under the curve) over 48 hours, in words",[1]; AUC 0-48 h,overall reduction
same,overall reduction of the troponin I release over 48 hours (area under the curve),[1]; AUC 0-48 h,20-40%
same,effect on serum level of IL-6 (postoperative rise),IL-6,no effect
same,effect on serum level of IL-6 (postoperative rise),IL-6; listed as elafin,not affected
same,LPS-induced activation of the transcription factors AP-1 and NF-κB,U937,inhibited
same,production of macrophage chemokine MCP-1 (CCL2),U937; LPS,inhibition
same,side effects after intravenous administration,[2],without any side effects
same,effect on serum level of CRP (postoperative rise),C-reactive protein (CRP),no effect
same,effect on serum level of CRP (postoperative rise),C-reactive protein (CRP); listed as elafin,not affected
